These results are taken from ChEMBL document CHEMBL1811764, “Structure-activity studies of RNA-binding oxazolidinone derivatives” (Bioorg Med Chem Lett, 2011).

Test [1] concerns Nucleic Acid. Briefly: Binding affinity to Bacillus subtilis AM1A antiterminator model RNA assessed as increase in fluorescence at 10 uM by FRET assay relative to control. The test is classed as nucleic-acid assay.
Test [2] deals with Nucleic Acid. Briefly: Binding affinity to Bacillus subtilis AM1A C11U antiterminator model RNA variant assessed as increase in fluorescence by FRET assay relative to control. More on the design: concentration or dose not given beside the values. The test is classed as nucleic-acid assay.

With `CCCCCCNC(=O)OC[C@H]1OC(=O)N[C@@H]1CN1CCN(c2ccccc2)CC1`, the Activity was 17.4% with Nucleic Acid [1] and 23.7% with Nucleic Acid [2].

In the case of `O=C(COc1ccccc1)OC[C@H]1OC(=O)N[C@@H]1CN1CCN(c2ccccc2)CC1`, the Activity stood at 9.5% in the test with Nucleic Acid [1] and 9.4% with Nucleic Acid [2].

For the compound `O=C(CCc1ccccc1)OC[C@H]1OC(=O)N[C@@H]1CN1CCN(c2ccccc2)CC1`, the Activity in the test on Nucleic Acid [1] is 20.6%; with Nucleic Acid [2], 26.1%.

As for `O=C(Nc1ccccc1)OC[C@H]1OC(=O)N[C@@H]1CN1CCN(c2ccccc2)CC1`, the values for the Activity with Nucleic Acid [1] and in the test on Nucleic Acid [2] were 8.4% and 11.2%, respectively.

Regarding `O=C1N[C@H](CN2CCN(c3ccccc3)CC2)[C@@H](COC(=O)c2ccccc2Cl)O1`, the Activity worked out at 30.4% in the test on Nucleic Acid [1] and 28.8% in the test with Nucleic Acid [2].

As to `CCCNC(=O)OC[C@H]1OC(=O)N[C@@H]1CN1CCN(c2ccccc2)CC1`, the results for the Activity in the test on Nucleic Acid [1] and in the test with Nucleic Acid [2] were 10.3% and 9.6%, respectively.

Take `O=C1N[C@H](CN2CCN(c3ccccc3)CC2)[C@@H](COC(=O)c2c(Cl)cccc2Cl)O1`: the results for the Activity with Nucleic Acid [1] and in the test with Nucleic Acid [2] were 15.3% and 16.2%, respectively.

`O=C(NCc1ccccc1)OC[C@H]1OC(=O)N[C@@H]1CN1CCN(c2ccccc2)CC1`: the figures for the Activity in the test with Nucleic Acid [1] and in the test on Nucleic Acid [2] were 6.1% and 11.7%, respectively.

With `CC(C)(C)OC(=O)N[C@H](C(=O)OC[C@H]1OC(=O)N[C@@H]1CN1CCN(c2ccccc2)CC1)c1ccccc1`, the figures for the Activity in the test with Nucleic Acid [1] and in the test on Nucleic Acid [2] were 26.7% and 19.4%, respectively.

`O=C1N[C@H](CN2CCN(c3ccccc3)CC2)[C@@H](COC(=O)c2cc(OCc3ccccc3)c(OCc3ccccc3)c(OCc3ccccc3)c2)O1`: the Activity with Nucleic Acid [1] stood at 14.3%; with Nucleic Acid [2] it was 18.6%.

Take `O=C(CC1CC2CCC1C2)OC[C@H]1OC(=O)N[C@@H]1CN1CCN(c2ccccc2)CC1` (stereo partly specified): the Activity with Nucleic Acid [1] was found to be 29.5%; with Nucleic Acid [2], 27.4%.

As to `CCCCCCCC(=O)OC[C@H]1OC(=O)N[C@@H]1CN1CCN(c2ccccc2)CC1`, the Activity in the test with Nucleic Acid [1] was found to be 18.1%; in the test with Nucleic Acid [2] it was 25.4%.

In the case of `CCCCNC(=O)OC[C@H]1OC(=O)N[C@@H]1CN1CCN(c2ccccc2)CC1`, the values for the Activity in the test on Nucleic Acid [1] and in the test with Nucleic Acid [2] were 10.5% and 14%, respectively.

With `O=C(Nc1ccc(Cl)c(Cl)c1)OC[C@H]1OC(=O)N[C@@H]1CN1CCN(c2ccccc2)CC1`, the Activity came out at 8.9% with Nucleic Acid [1] and 14.7% in the test on Nucleic Acid [2].

Take `CC(C)CC(=O)OC[C@H]1OC(=O)N[C@@H]1CN1CCN(c2ccccc2)CC1`: the values for the Activity in the test with Nucleic Acid [1] and with Nucleic Acid [2] were 9.5% and 14%, respectively.

Turning to `CC(C)(C)C(=O)OC[C@H]1OC(=O)N[C@@H]1CN1CCN(c2ccccc2)CC1`, the figures for the Activity in the test on Nucleic Acid [1] and in the test on Nucleic Acid [2] were 7.1% and 13.2%, respectively.

Regarding `Cc1ccc(C(=O)OC[C@H]2OC(=O)N[C@@H]2CN2CCN(c3ccccc3)CC2)cc1`, the figures for the Activity with Nucleic Acid [1] and in the test on Nucleic Acid [2] were 27.4% and 27.5%, respectively.

In the case of `O=C1N[C@H](CN2CCN(c3ccccc3)CC2)[C@@H](COC(=O)Oc2ccccc2)O1`, the Activity with Nucleic Acid [1] is 12.4%; in the test on Nucleic Acid [2], 21.3%.

Take `O=C1N[C@H](CN2CCN(c3ccccc3)CC2)[C@@H](COC(=O)c2ccccc2I)O1`: the Activity with Nucleic Acid [1] worked out at 28.6%; in the test on Nucleic Acid [2], 22.4%.

For the compound `O=C(Cc1ccccc1)OC[C@H]1OC(=O)N[C@@H]1CN1CCN(c2ccccc2)CC1`, the Activity in the test on Nucleic Acid [1] came to 8.5%; in the test on Nucleic Acid [2], 15.9%.

Take `O=C1N[C@H](CN2CCN(c3ccccc3)CC2)[C@@H](COC(=O)c2ccco2)O1`: the Activity in the test on Nucleic Acid [1] was 6.4%; in the test with Nucleic Acid [2], 14.7%.

On to `O=C(Nc1cccc([N+](=O)[O-])c1)OC[C@H]1OC(=O)N[C@@H]1CN1CCN(c2ccccc2)CC1`, for which the Activity in the test on Nucleic Acid [1] was -1.1%; with Nucleic Acid [2], 0.2%.

Take `O=C(Cc1ccc(-c2ccccc2)cc1)OC[C@H]1OC(=O)N[C@@H]1CN1CCN(c2ccccc2)CC1`: the figures for the Activity in the test with Nucleic Acid [1] and in the test on Nucleic Acid [2] were 25.3% and 22.3%, respectively.

Regarding `CN(C)c1cccc(C(=O)OC[C@H]2OC(=O)N[C@@H]2CN2CCN(c3ccccc3)CC2)c1`, the Activity in the test on Nucleic Acid [1] was found to be 24.6%; in the test with Nucleic Acid [2], 27.1%.

Take `CC(C)(C)NC(=O)OC[C@H]1OC(=O)N[C@@H]1CN1CCN(c2ccccc2)CC1`: the Activity came to 8.9% in the test on Nucleic Acid [1] and 8.7% in the test on Nucleic Acid [2].

For the compound `CC(C)(C)OC(=O)NCCCCC(=O)OC[C@H]1OC(=O)N[C@@H]1CN1CCN(c2ccccc2)CC1`, the Activity with Nucleic Acid [1] was 29.4%; with Nucleic Acid [2], 27.7%.

Take `Cc1c(C(=O)OC[C@H]2OC(=O)N[C@@H]2CN2CCN(c3ccccc3)CC2)cccc1[N+](=O)[O-]`: the Activity with Nucleic Acid [1] was 23.3%; in the test on Nucleic Acid [2], 24.5%.

For the compound `COc1ccc(NC(=O)OC[C@H]2OC(=O)N[C@@H]2CN2CCN(c3ccccc3)CC2)cc1`, the Activity in the test with Nucleic Acid [1] turned out to be 7.8%; in the test on Nucleic Acid [2], 7.7%.

`O=C1N[C@H](CN2CCN(c3ccccc3)CC2)[C@@H](COC(=O)c2ccc([N+](=O)[O-])cc2)O1`: the Activity in the test on Nucleic Acid [1] worked out at 13.1%; with Nucleic Acid [2], 15.2%.

Take `O=C(Nc1ccc([N+](=O)[O-])cc1)OC[C@H]1OC(=O)N[C@@H]1CN1CCN(c2ccccc2)CC1`: the Activity is -1.8% with Nucleic Acid [1] and -4.9% with Nucleic Acid [2].

Regarding `O=C(CCCCCc1ccccc1)OC[C@H]1OC(=O)N[C@@H]1CN1CCN(c2ccccc2)CC1`, the Activity amounted to 32.6% in the test with Nucleic Acid [1] and 30.9% in the test on Nucleic Acid [2].

On to `CCc1ccc(NC(=O)OC[C@H]2OC(=O)N[C@@H]2CN2CCN(c3ccccc3)CC2)cc1`, for which the values for the Activity in the test on Nucleic Acid [1] and with Nucleic Acid [2] were 18.3% and 19.1%, respectively.

Take `CCCCCc1ccc(NC(=O)OC[C@H]2OC(=O)N[C@@H]2CN2CCN(c3ccccc3)CC2)cc1`: the Activity came to 10.6% in the test on Nucleic Acid [1] and 11.1% in the test with Nucleic Acid [2].

Regarding `O=C(CCCC1CCCCC1)OC[C@H]1OC(=O)N[C@@H]1CN1CCN(c2ccccc2)CC1`, the Activity with Nucleic Acid [1] amounted to 31.8%; with Nucleic Acid [2], 29%.

As for `CC(C)CCC(=O)OC[C@H]1OC(=O)N[C@@H]1CN1CCN(c2ccccc2)CC1`, the Activity came to 15% with Nucleic Acid [1] and 20.2% with Nucleic Acid [2].

For `O=C1N[C@H](CN2CCN(c3ccccc3)CC2)[C@@H](COC(=O)c2ccc(Cl)cc2)O1`, the Activity in the test on Nucleic Acid [1] was determined as 29.1%; in the test with Nucleic Acid [2], 22.8%.

Take `O=C(Cc1ccc(Cl)c(Cl)c1)OC[C@H]1OC(=O)N[C@@H]1CN1CCN(c2ccccc2)CC1`: the results for the Activity in the test on Nucleic Acid [1] and in the test with Nucleic Acid [2] were 29.1% and 28.9%, respectively.

In the case of `CC(C)=CCCC(C)CC(=O)OC[C@H]1OC(=O)N[C@@H]1CN1CCN(c2ccccc2)CC1` (stereo partly specified), the Activity came to 38.9% in the test on Nucleic Acid [1] and 42.4% in the test with Nucleic Acid [2].

On to `O=C1N[C@H](CN2CCN(c3ccccc3)CC2)[C@@H](COC(=O)C2CCCCC2)O1`, for which the results for the Activity with Nucleic Acid [1] and in the test on Nucleic Acid [2] were 19.5% and 20.7%, respectively.

On to `O=C1N[C@H](CN2CCN(c3ccccc3)CC2)[C@@H](COC(=O)c2ccccc2)O1`, for which the values for the Activity in the test with Nucleic Acid [1] and in the test on Nucleic Acid [2] were 14.8% and 18.6%, respectively.

As to `COc1cccc(C(=O)OC[C@H]2OC(=O)N[C@@H]2CN2CCN(c3ccccc3)CC2)c1`, the Activity with Nucleic Acid [1] was determined as 23.8%; in the test on Nucleic Acid [2], 24.7%.

For the compound `COc1ccc(CC(=O)OC[C@H]2OC(=O)N[C@@H]2CN2CCN(c3ccccc3)CC2)cc1`, the Activity came to 13.7% with Nucleic Acid [1] and 18.8% in the test with Nucleic Acid [2].

As for `CCCC(=O)OC[C@H]1OC(=O)N[C@@H]1CN1CCN(c2ccccc2)CC1`, the Activity with Nucleic Acid [1] came out at 10.1%; with Nucleic Acid [2], 19.7%.

With `CCCCCC(=O)OC[C@H]1OC(=O)N[C@@H]1CN1CCN(c2ccccc2)CC1`, the Activity came out at 15.5% in the test on Nucleic Acid [1] and 21% in the test with Nucleic Acid [2].

As for `O=C1N[C@H](CN2CCN(c3ccccc3)CC2)[C@@H](COC(=O)c2ccccc2F)O1`, the Activity turned out to be 18.5% in the test with Nucleic Acid [1] and 20.4% with Nucleic Acid [2].

On to `O=C(Cc1ccc([N+](=O)[O-])cc1)OC[C@H]1OC(=O)N[C@@H]1CN1CCN(c2ccccc2)CC1`, for which the Activity stood at 9.1% in the test on Nucleic Acid [1] and 16.5% in the test with Nucleic Acid [2].

Turning to `COc1cccc(CC(=O)OC[C@H]2OC(=O)N[C@@H]2CN2CCN(c3ccccc3)CC2)c1`, the Activity in the test on Nucleic Acid [1] turned out to be 18.9%; in the test on Nucleic Acid [2] it was 19.6%.

Turning to `O=C1N[C@H](CN2CCN(c3ccccc3)CC2)[C@@H](COC(=O)c2ccccc2Oc2ccccc2)O1`, the figures for the Activity with Nucleic Acid [1] and in the test on Nucleic Acid [2] were 30.8% and 26.5%, respectively.

Take `CC(C)(C)OC(=O)N[C@@H](C(=O)OC[C@H]1OC(=O)N[C@@H]1CN1CCN(c2ccccc2)CC1)c1ccccc1`: the Activity was determined as 39.6% in the test on Nucleic Acid [1] and 42.6% with Nucleic Acid [2].

Consider `CC(=O)c1ccc(NC(=O)OC[C@H]2OC(=O)N[C@@H]2CN2CCN(c3ccccc3)CC2)cc1`, for which the Activity in the test on Nucleic Acid [1] worked out at 7.7%; with Nucleic Acid [2], 13.4%.

For the compound `N#Cc1ccccc1C(=O)OC[C@H]1OC(=O)N[C@@H]1CN1CCN(c2ccccc2)CC1`, the figures for the Activity in the test with Nucleic Acid [1] and in the test with Nucleic Acid [2] were 7.3% and 16.7%, respectively.

For `Cc1cccc(NC(=O)OC[C@H]2OC(=O)N[C@@H]2CN2CCN(c3ccccc3)CC2)c1`, the results for the Activity in the test on Nucleic Acid [1] and in the test with Nucleic Acid [2] were 16.8% and 26.7%, respectively.

As to `Cc1cccc(C(C)(C)C)c1NC(=O)OC[C@H]1OC(=O)N[C@@H]1CN1CCN(c2ccccc2)CC1`, the Activity in the test on Nucleic Acid [1] is 14.8%; in the test on Nucleic Acid [2] it was 15.4%.
